# Read-outs that look alike come from different tables or passages of the source.
# How the values were obtained:
# [1] = Compatibility investigation of binary mixtures with vitamin B12 by DSC; format: physicochemical; set-up: key to Compatibility: ++ good compatibility expected below the stated temperature; + compatibility below the stated temperature; ++/− indifferent compatibility, possibly good compatibility below the stated temperature; +/−− indifferent compatibility, appears to be compatible below the stated temperature; −(−−−) (strong) interaction, incompatible; −(−−−) (strong) interaction, incompatible; conditions: for Compatibility: binary mixture with vitamin B12, DSC, various gases and temperatures, stated temperature is 60° C. where given; for Comments: binary mixture with vitamin B12, cells wrap, all except Drospirenone and Ethinylestradiol ('very O2-sensitive') continue 'moisture-sensitive'
# Procedure: Both vitamin B12 and 5-methyl-(6S)-tetrahydrofolate are unstable in the presence of atmospheric oxygen and humidity. […] Measurements of the incompatibilities between the intended formulation ingredients were carried out by a thermoanalytical method (DSC, differential scanning calorimetry). This allows incompatibilities to be recognized through low enthalpies of fusion and melting temperatures. These are caused for example by a reduced proportion of crystalline substance and the increase in impurities. In the determination, binary mixtures of excipients or active ingredients in each case with vitamin B12 were investigated, and the compatibility was examined under the influence of various gases and temperatures. […]
# [2] = intake at the right time around conception; cited from earlier work
# [3] = Procedure: The investigated formulation was prepared (process 2) by mixing the ingredients, granulating with the part of the corn starch used as binder, absorbing the 5-methyl-(6S)-tetrahydrofolate after completion of the granulation process, renewed mixing and tableting. By comparison therewith, polyvinylpyrrolidone was added as binder instead of corn starch to the formulation by process 3.
# The difference between process 1 and process 2 derives from the time at which the 5-methyl-(6S)-tetrahydrofolate was added during the preparation of the investigated tablet. In process 1, the 5-methyl-(6S)-tetrahydrofolate was present in the mixture even during the granulation, whereas in process 2 it was absorbed only after the granulation.
# [4] = 50 rpm, 37° C., 0.03 percent aqueous ascorbic acid solution
# Procedure: For this purpose, the tablets were investigated in an in vitro dissolution test using a USP paddle apparatus at 50 rpm and 37° C. in a 0.03 percent aqueous ascorbic acid solution.
# [5] = one month
# Text: An oral formulation is normally prepared by granulation, tableting and film-coating.
# [6] = of Metafolin content per tablet immediately after preparation
# [7] = per tablet, of specified content 100%, immediately after preparation, average
# [8] = vials closed, listed as 5-methyl-(6S)-tetrahydrofolate
compound,measurement,setting,value
Magnesium stearate,Compatibility,[1],++/−
same,Comments,[1],"O2-sensitive,"
C[C@]12CCC(=O)C=C1[C@@H]1C[C@@H]1[C@H]1[C@@H]3[C@@H]4C[C@@H]4[C@@]4(CCC(=O)O4)[C@@]3(C)CC[C@@H]12 [Drospirenone],Compatibility,[1],+
same,Comments,[1],O2-sensitive
Nc1nc2ncc(CNc3ccc(C(=O)N[C@@H](CCC(=O)O)C(=O)O)cc3)nc2c(=O)[nH]1 [folic acid],reduction of neural tube defects,[2],50-70%
OC[C@H]1O[C@@H](O[C@H]2[C@H](O)[C@@H](O)C(O)O[C@@H]2CO)[C@H](O)[C@@H](O)[C@H]1O (stereo partly drawn) [Lactose],Compatibility,[1],+
same,Comments,[1],"O2-sensitive,"
CN1c2c(nc(N)[nH]c2=O)NC[C@@H]1CNc1ccc(C(=O)N[C@@H](CCC(=O)O)C(=O)O)cc1 [Metafolin],"Distribution coefficient, absorption (process 2)",[3]; [6],2.5
same,"Distribution coefficient, granulation (process 1)",[3]; [6],6.1
same,Metafolin content granulation (process 1),"[3]; per tablet, immediately after preparation, average",88.5%
same,"Metafolin content absorption, PVP (process 3)",[3]; [7],90.5%
same,"Metafolin content absorption, corn starch (process 2)",[3]; [7],96.1%
same,5-Methyl-(6S)-tetrahydrofolate process 1 dissolution [%],[4]; 0 min,0%
same,5-Methyl-(6S)-tetrahydrofolate process 2 dissolution [%],[4]; 0 min,0%
same,5-Methyl-(6S)-tetrahydrofolate process 1 dissolution [%],[4]; 10 min,59.2%
same,5-Methyl-(6S)-tetrahydrofolate process 2 dissolution [%],[4]; 10 min,81.4%
same,5-Methyl-(6S)-tetrahydrofolate process 1 dissolution [%],[4]; 15 min,66.8%
same,5-Methyl-(6S)-tetrahydrofolate process 2 dissolution [%],[4]; 15 min,89.3%
same,5-Methyl-(6S)-tetrahydrofolate process 1 dissolution [%],[4]; 30 min,73.1%
same,5-Methyl-(6S)-tetrahydrofolate process 2 dissolution [%],[4]; 30 min,91.3%
same,5-Methyl-(6S)-tetrahydrofolate process 1 dissolution [%],[4]; 45 min,76.7%
same,5-Methyl-(6S)-tetrahydrofolate process 2 dissolution [%],[4]; 45 min,91.1%
same,5-Methyl-(6S)-tetrahydrofolate process 1 dissolution [%],[4]; 60 min,75.8%
same,5-Methyl-(6S)-tetrahydrofolate process 2 dissolution [%],[4]; 60 min,91.2%
same,Metafolin content 25° C./60% rH absorption (process 2),[5]; vials closed,92.5%
same,Metafolin content 25° C./60% rH granulation (process 1),[5]; vials closed,74.5%
same,Metafolin content 40° C./75% rH absorption (process 2),[5]; vials closed,90.1%
same,Metafolin content 40° C./75% rH granulation (process 1),[5]; vials closed,58.9%
same,Metafolin content 40° C./75% rH absorption (process 2),[5]; [8],above 90%
same,Metafolin content 40° C./75% rH granulation (process 1),[5]; [8],~60%
same,Metafolin content 25° C./60% rH absorption PVP (process 3),[5]; vials open,89.5%
same,Metafolin content 25° C./60% rH absorption corn starch (process 2),[5]; vials open,92.1%
same,Metafolin content 25° C./60% rH granulation (process 1),[5]; vials open,63.2%
same,Metafolin content 40° C./75% rH absorption PVP (process 3),[5]; vials open,37.7%
same,Metafolin content 40° C./75% rH absorption corn starch (process 2),[5]; vials open,67.7%
same,Metafolin content 40° C./75% rH granulation (process 1),[5]; vials open,43.4%
